Some results are limits rather than exact numbers.

One data set relates to A-427. As to the kind of experiment: MTT test, cytotoxic activity on non-clonogenic cell lines. The class given is cell-based. As to conditions: Homo sapiens, 10^−5 M, 72 hours of incubation, control condition = 100%, mean value, read-out: mean optical density as percentage of control, A-427. The protocol:
(§1) The principle of the MTT test is based on the mitochondrial reduction, by the metabolically active live cells, of the yellow-colored product MTT (3-(4,5-dimethylthiazol-2-yl)-2,5-diphenyltetrazolium bromide) to a blue-colored product, formazan. The amount of formazan thus obtained is directly proportional to the amount of live cells present in the culture well(s). This amount of formazan is measured by spectrophotometry.
(§2) The cell lines are maintained as a monolayer culture at 37° C. in stoppered culture dishes containing MEM 25 MM HEPES (Minimum Essential Medium) base medium. This medium is suited to the growth of a range of various mammalian diploid or primary cells. This medium is then supplemented with:
(§3) The 12 human cancer cell lines which were used were obtained from the American Type Culture Collection (ATCC, Rockville, Md., USA). These 12 cell lines are:
(§4) Experimentally, 100 μl of a cell suspension containing 20 000 to 50 000 (depending on the cell type used) cells/ml of culture medium are inoculated -in 96-well flat-bottomed multi-well plates and are left to stand in an incubator at 37° C., 5% CO2 and 70% humidity. After an incubation time of 24 hours, the culture medium is replaced with 100 μl of fresh medium containing either the various test compounds—at concentrations varying from 10^−5 to 10^−10 M—or the solvent having served for dissolving the products to be tested (control condition). […] The microplates are thus incubated for 3 hours at 37° C., then centrifuged for 10 minutes at 400 g. The yellowish solution of MTT is removed and the blue formazan crystals formed in the cell region are dissolved in 100 μl or DMSO. The microplates are then shaken for 5 minutes. […] Software incorporated in the spectrophotometer calculates the average optical density values and the standard deviation (SD) and standard error of mean (SEM) values.
Background: Tetrazolium dyes change colour on reduction, which living cells bring about.

In a further data set the test system is A549. Described as above. The class given is cell-based. As to conditions: Homo sapiens, 10^−5 M, 72 hours of incubation, control condition = 100%, mean value, read-out: mean optical density as percentage of control, A549. The procedure: as §1, §2, §3, §4
The subject of another data set is HCT-15. The description is as above. To be noted: Homo sapiens, 10^−5 M, 72 hours of incubation, control condition = 100%, mean value, read-out: mean optical density as percentage of control, HCT-16. The class given is cell-based. The protocol:
as §1, §2, §3, §4

The test system of the next data set is LoVo. The description is as above. As to conditions: Homo sapiens, 10^−5 M, 72 hours of incubation, control condition = 100%, mean value, read-out: mean optical density as percentage of control, LoVo. Type of data set: cell-based. The protocol: as §1, §2, §3, §4
For another data set, the system named is MCF7. The description is as above. The class given is cell-based. To be noted: Homo sapiens, 10^−5 M, 72 hours of incubation, control condition = 100%, mean value, read-out: mean optical density as percentage of control, MCF7. The procedure: as §1, §2, §3, §4
Another data set concerns PC-3. Described as above. Type of data set: cell-based. As to conditions: Homo sapiens, 10^−5 M, 72 hours of incubation, control condition = 100%, mean value, read-out: mean optical density as percentage of control, PC-3. The protocol:
as §1, §2, §3, §4

Another data set relates to T-47D. The data set is described as above. Type of data set: cell-based. To be noted: Homo sapiens, T47D; 10^−5 M, 72 hours of incubation, control condition = 100%, mean value; read-out: mean optical density as percentage of control, T-47D. The procedure:
as §1, §2, §3, §4

A further data set relates to U-373MG. Described as above. The class given is cell-based. To be noted: Homo sapiens, U373 MG; 10^−5 M, 72 hours of incubation, control condition = 100%, mean value; read-out: mean optical density as percentage of control, U-373MG. The procedure: as §1, §2, §3, §4
In the next data set the test system is U-87MG. The description is as above. Type of data set: cell-based. As to conditions: Homo sapiens, U-87 MG; 10^−5 M, 72 hours of incubation, control condition = 100%, mean value; read-out: mean optical density as percentage of control, U-87MG. The protocol:
as §1, §2, §3, §4

The next data set concerns SW1088. Described as above. Type of data set: cell-based. As to conditions: Homo sapiens, 10^−5 M, 72 hours of incubation, control condition = 100%, mean value, read-out: mean optical density as percentage of control, SW1088. The protocol: as §1, §2, §3
SW1088 (code ATCC: HTB-12) which is an astro-cytoma,
as §4

A further data set deals with J82. Described as above. To be noted: Homo sapiens, 10^−5 M, 72 hours of incubation, control condition = 100%, mean value, read-out: mean optical density as percentage of control, J82. The class given is cell-based. The protocol:
as §1, §2, §3
(§5) J82 (code ATCC: HTB-1) and T24 (code ATCC: HTB-4) which are two bladder cancers,
as §4

A further data set has as its system T24. The description is as above. Type of data set: cell-based. As to conditions: Homo sapiens, T-24; 10^−5 M, 72 hours of incubation, control condition = 100%, mean value; read-out: mean optical density as percentage of control, T24. The procedure:
as §1, §2, §3, §5, §4

A short description of data set [1]: Determination of the maximum tolerated dose (MTD). As to conditions: B6D2F1/Jico, mouse, in vivo, ip; single intraperitoneal administration, doses 2.5 to 160 mg/kg, survival over 14 days. The procedure:
The evaluation of the maximum tolerated dose was performed on 4- to 6-week-old B6D2F1/Jico mice. The compounds were administered intraperitoneally at increasing doses ranging from 2.5 to 160 mg/kg. The value of the MTD (expressed in mg/kg) is determined from the observation of the survival rate of the animals over a 14-day period after a single administration of the product under consideration. The change in weight of the animals is also monitored during this period. When the MTD value is greater than 160 mg/kg, the MTD value is considered as being 160 mg/kg by default.

One may read the MTD as the largest dose that counted as tolerated. For the molecule `O=c1c(-c2ccccc2)c[nH]c2ccccc12` [CRL8326, 3-Phenyl-1,4-dihydro-4-quinolinone], the viability at 10 µM in the data set with A-427 turned out to be 101%; in the data set on A549 it was 104%; in the data set with HCT-15, 110%; in the data set on LoVo it was 67.7%; in the data set with MCF7, 94.1%; in the data set on PC-3 it was 95.4%. The viability at 10 µM in the data set with T-47D was found to be 50.2%; in the data set on U-373MG, 96.9%; with U-87MG, 102%; in the data set with SW1088, 108%; in the data set on J82 it was 86.9%; in the data set with T24, 92.6%. The molecule also registered an MTD at 14 day in data set [1] of over 160 mg/kg.
Regarding `COc1ccc(-c2c[nH]c3ccccc3c2=O)cc1` [CRL8327, 3-(4-Methoxyphenyl)-1,4-dihydro-4-quinolinone], the viability at 10 µM in the data set on A-427 came out at 77.5%; in the data set with A549, 71.5%; with HCT-15, 87.5%; in the data set with LoVo it was 47.3%; in the data set on MCF7, 90.7%; in the data set on PC-3, 87.4%. In addition, the viability at 10 µM in the data set with T-47D came to 79%; in the data set on U-373MG, 58.7%; in the data set on U-87MG, 89%; in the data set on SW1088 it was 99%; in the data set with J82, 85.1%; with T24, 187%. For the same molecule, in [1], the MTD at 14 day was over 160 mg/kg.
As for `COc1cccc2c(=O)c(-c3ccccc3)c[nH]c12` [CRL8328, 8-Methoxy-3-phenyl-1,4-dihydro-4-quinolinone], the viability at 10 µM with A-427 was found to be 101%; in the data set with A549, 92.5%; in the data set with HCT-15, 85.8%; in the data set on LoVo, 94.3%; with MCF7, 93.7%; with PC-3, 91.9%. For the same molecule, the viability at 10 µM was 96% with T-47D; 98.1% with U-373MG; 85.7% in the data set with U-87MG; 91% in the data set with SW1088; 95.9% in the data set on J82; 94.8% with T24. The molecule further came in with an MTD at 14 day in data set [1] of 80 mg/kg.
For the molecule `COc1ccc(-c2c[nH]c3c(OC)cccc3c2=O)cc1` [CRL8329, 8-Methoxy-3-(4-methoxyphenyl)-1,4-dihydro-4-quinolinone], the viability at 10 µM was 102% in the data set with A-427; 96.5% in the data set with A549; 98% in the data set on HCT-15; 94.6% in the data set with LoVo; 96.3% in the data set with MCF7; 93.1% in the data set on PC-3. The viability at 10 µM is 78.5% with T-47D; 94% in the data set on U-373MG; 1.38% in the data set with U-87MG; 96.2% with SW1088; 96.8% in the data set on J82; 95.4% in the data set with T24. In addition, in data set [1], the MTD at 14 day was over 160 mg/kg.
In the case of `COc1ccc(-c2c[nH]c3cc(OC)cc(OC)c3c2=O)cc1` [CRL8337, 5,7-Dimethoxy-3-(4-methoxyphenyl)-1,4-dihydro-4-quinolinone], the viability at 10 µM turned out to be 106% in the data set with A-427; 96.9% with A549; 98.5% in the data set on HCT-15; 93.3% in the data set with LoVo; 76.5% in the data set on MCF7; 92.8% in the data set with PC-3. Further, the viability at 10 µM was found to be 79.4% in the data set with T-47D; 95.6% in the data set with U-373MG; 84.4% with U-87MG; 84.9% with SW1088; 90.9% in the data set with J82; 102% in the data set with T24. Also, the MTD at 14 day in [1] was over 160 mg/kg.
`COc1ccc(-c2cn(C)c3cc(OC)cc(OC)c3c2=O)cc1` [CRL8340, 5,7-Dimethoxy-3-(4-methoxyphenyl)-1-methyl-1,4-dihydro-4-quinolinone]: the viability at 10 µM in the data set on A-427 worked out at 84.2%; with A549, 84%; with HCT-15, 92.5%; with LoVo, 93%; in the data set on MCF7, 72.3%; in the data set on PC-3 it was 84.8%. In addition, the viability at 10 µM in the data set on T-47D was found to be 66.1%; in the data set with U-373MG, 97.9%; in the data set with U-87MG, 87.6%; with SW1088, 84%; with J82, 90.2%; with T24, 82.8%. In data set [1], the MTD at 14 day is over 160 mg/kg.
For the molecule `CCN(CC)C(=O)Cn1cc(-c2ccc(OC)cc2)c(=O)c2c(OC)cc(OC)cc21` [CRL8349, N,N-Diethyl-2-[5,7-dimethoxy-3-(4-methoxyphenyl)-4-oxo-1,4-dihydro-1-quinolinyl]acetamide], the viability at 10 µM turned out to be 90.7% in the data set on A-427; 96.2% in the data set with A549; 91.2% with HCT-15; 104% in the data set with LoVo; 97.4% in the data set with MCF7; 98.6% in the data set with PC-3. Besides, the viability at 10 µM was 91% in the data set with T-47D; 66.7% with U-373MG; 98.3% in the data set with U-87MG; 100% with SW1088; 93.3% with J82; 95.1% with T24. The same molecule had an MTD at 14 day in [1] of over 160 mg/kg.
As for `COc1ccc(-c2cn(CCN(C)C)c3cc(OC)cc(OC)c3c2=O)cc1` [CRL8350, N-[3-(Dimethylamino)ethyl]-5,7-dimethoxy-3-(4-methoxyphenyl)-1,4-dihydro-4-quinolinone], the viability at 10 µM in the data set with A-427 came to 99.5%; in the data set on A549 it was 93%; with HCT-15 it was 95.3%; in the data set on LoVo it was 92%; in the data set with MCF7 it was 181%; in the data set on PC-3 it was 95.3%. The viability at 10 µM was determined as 87.1% in the data set on T-47D; 59.5% with U-373MG; 85.6% in the data set with U-87MG; 101% in the data set with SW1088; 91.5% in the data set with J82; 86.9% in the data set on T24. For the same molecule, the MTD at 14 day in [1] was over 160 mg/kg.

Source of the values: patent US6645983B1, “Pharmaceutical compositions comprising 4-quinolones for treating cancers” (Laboratoire L. Lafon, priority 1999, dated 2003).
